pEC50, pKd, pKi: −log10 of the molar value.
Tests used:
[1] = target: T1, hCB2R (Homo sapiens, UniProt P34972); test: Radioligand binding assay with [3H]-CP55,940; set-up: expressed in transfected cells; settings: [3H]-CP55,940 competition, CHO-hCB2R membranes, 2 h at 30 °C
Description: For bindings experiments CHO cells stably expressing the human CB2R were used.14 […]
Radioligand binding assays were performed with [3H]-CP55,940 (Perkin Elmer, Austria) .
Membrane preparation was carried out according to previously published protocols.15 Briefly, competition binding experiments were carried out in duplicates at a final volume of 300 µL containing binding buffer (50 mM Tris-HCl, 2.5mM EDTA, 5 mM MgCl2, 0.5 mg/mL fatty acid-free BSA; pH 7.4), [3H]-CP55,940 (0.3 nM final concentration), compounds (semi logarithmically -spaced concentrations ranging from 0.1 nM to 10 µM) and membranes (2 µg/assay) in silanized glass vials. The reaction mixture was incubated for 2 h at 30 °C. Nonspecific binding was determined in the presence of AM630 (10 µM). Bound radioligand was separated from free radioligand by rapid filtration using 0.1% polyethlyenimine -presoaked GF/C glass fiber filter and a Skatron cell harvester. The radioactivity retained on the filters was measured by liquid scintillation. IC 50 and Ki values obtained from radioligand competition binding assays were determined by fitting the data to a three-parameter logistic Hill equation and applying the Cheng and Prusoff approximation. Data were normalized to specific binding of [3H]-CP55,940 in absence of compounds as maximum percentage (100%), which refers to an average of 4500 -5000 fmoles/mg protein for CB2R. […]

[2] = target: T1, hCB2R; test: cAMP HTRF assay in hCB2R-CHO cells; type: cell-based; set-up: expressed in transfected cells
Description: One of the canonical signaling pathways of CB2R involves association with Gαi/o proteins, which elicit reversible inhibition of adenylyl cyclase resulting in a decrease of cellular cAMP levels and suppression of protein kinase A activity.[67] Consequently, we have investigated the change in cAMP levels upon probe addition using homogeneous time-resolved fluorescence (HTRF) cAMP assay (Table 3).
Homogeneous Time-Resolved Fluorescence (HTRF) cAMP assay
The homogeneous time-resolved fluorescence (HTRF) cAMP assay was conducted according to the manufacturer’s protocol for the cAMP-Gs Dynamic kit (Cisbio). Briefly, the CHO cell line stably overexpressing CB2R was maintained in Ham’s F12 supplemented with 10% FBS, penicillin (100 U/mL, Gibco-ThermoFisher), streptomycin (100 μg/mL, Gibco-ThermoFisher) and G418 (400 μg/mL, ThermoFisher). For CB2R compounds test, the cells were harvested with Cell Dissociation Buffer, resuspended in F-12 K at 0.4×10^6 cells/mL, and dispensed into 384-well low volume plates at 2000 cells/5 μL per well. The cells were stimulated with compounds diluted in Stimulation Buffer (2.5 μL/well) for 15 min at room temperature, followed by the addition of forsklin (2.5 μL 25 μM). After 15 mins incubation, reactions were stopped by 5 μL/well cAMP-d2 conjugate working solution followed by 5 μL/well of anti-cAMP cryptate working solution. After incubation for 1 h at room temperature, the plates were read in a PerkinElmer Envision reader for Time-Resolved Förster Resonance Energy Transfer (TR-FRET) at 620 nm and 665 nm.
β–arrestin recruitment assay
SNAP-tagged human CB2R HEK293-TR cells were maintained in a humidified environment at 37 °C and 5% CO2 in Dulbecco’s modified Eagle’s medium (DMEM) with 10% fetal bovine serum (FBS) containing blasticidin (5 µg/mL; Invitrogen) and (Zeocin; 20 µg/mL; Invitrogen). For receptor-inducible expression, cells were seeded into t175 cm2 flasks, grown to 70% confluence and DMEM containing 1 µg/ml tetracycline added.
HEK293TR-CB2R-nLuc cells expressing a fluorescently labelled β-arrestin protein were maintained in a humidified environment at 37 °C and 5% CO2 in Dulbecco’s modified Eagle’s medium (DMEM) with 10% fetal bovine serum (FBS) containing blasticidin (5 µg/mL; Invitrogen), Zeocin (20 µg/mL; Invitrogen) and G418 (0.2 mg/mL; Invitrogen) and used to assess compound stimulated β-arrestin recruitment to the human CB2R. Cultured cells were harvested upon reaching 70% confluency and plated at a seeding density of 50,000 cells per well. The cells were grown for 48 h until they reached confluency and then stimulated with 1 μg/mL tetracycline for a further 48 h to induce CB2R expression. Cell culture media was then aspirated from the wells and the cells were washed with assay buffer, 100 μL/well HBSS containing 0.5% BSA and 5 mM

[3] = target: T1, hCB2R; type: cell-based; set-up: expressed in transfected cells; host or cells: HEK293TR cells, tetracycline-induced, live cells; settings: HEK293TR-CB2R-nLuc cells, representative of N = 3
Description: HEPES. Following the wash, assay buffer containing 10 μM furimazine, 90 μL/well was added
to the wells. The plate was then incubated at 37 °C for 15 minutes to allow the nanoLuc substrate
furimazine to enter the cells. Three BRET cycles of 1-minute intervals were performed to assess
basal BRET levels, following which 10 μL of each compound, diluted in assay buffer was added
to the assay plate, which was read at 1-minute intervals for 30 minutes.
Buffer containing 10% DMSO (1% final) served as the vehicle control and
The assay buffer used to profile compounds in the CB 2R Gi-CASE system consisted of HBSS
containing 0.02% pluronic F127, 0.5% BSA and 5 mM HEPES. The reference compounds HU -
polypropylene plate. 0.5 µL of the reference and test compound serial dilutions was then added to
a white 384 well OptiplateTM (PerkinElmer) containing 39.5 μL of assay buff er. Finally, the CB 2R
membranes containing the G i-CASE biosensor were thawed and added into assay buffer containing
50 µM furimazine. Membranes (10 μL) were added to the assay plate at a final concentration of 5
µg/well. The total assay volume was 50 µL.

[4] = target: T1, hCB2R; test: TR-FRET saturation binding assay at CB2R; set-up: expressed in transfected cells; host or cells: HEK293-TR cells, tetracycline-induced; membrane preparations; settings: TR-FRET, room temperature, HEK293 membranes of SNAP-Lumi4-Tb labeled hCB2R
[5] = target: T1, hCB2R; test: TR-FRET kinetic binding assay at CB2R; set-up: expressed in transfected cells; host or cells: HEK293-TR cells, tetracycline-induced; membrane preparations; settings: for ΔΔG (Experimental): (R)-3 in comparison to (S)-3, from experimental Kd values
[6] = target: T1, hCB2R; test: BRET Gi-CASE G protein recruitment membrane assay; type: biochemical; set-up: expressed in transfected cells; host or cells: HEK293-TR cells, tetracycline-induced; membrane preparations; settings: hCB2R-HEK293 T-REx membranes, mean N = 3–4; read-out: pEC50 (Gi-CASE G protein recruitment) (converted)
[7] = 37 °C, hCB2R-HEK293 membranes, mean N = 3

T1 sequence (P34972 whole entry): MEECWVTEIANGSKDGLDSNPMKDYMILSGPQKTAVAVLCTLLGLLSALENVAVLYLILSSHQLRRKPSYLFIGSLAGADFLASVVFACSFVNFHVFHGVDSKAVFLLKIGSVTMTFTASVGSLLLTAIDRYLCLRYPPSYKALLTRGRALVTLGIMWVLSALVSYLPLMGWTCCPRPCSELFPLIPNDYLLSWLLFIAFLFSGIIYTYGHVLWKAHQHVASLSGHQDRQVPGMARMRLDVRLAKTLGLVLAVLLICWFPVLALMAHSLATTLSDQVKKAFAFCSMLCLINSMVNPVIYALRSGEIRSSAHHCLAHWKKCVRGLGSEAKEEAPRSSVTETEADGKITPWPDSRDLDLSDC

C#CCCC(=O)NCC1=CC(c2c(OC)cc(C(C)(C)C(CCCCCN=[N+]=[N-])c3ccccc3)cc2OC)C2CC1C2(C)C [(R)-3]
pKi [1]: 9.18 | pEC50 ([2]; hCB2R-CHO cells, forskolin stimulated, mean N = 3): 7.48 | Emax (cAMP) ([2]; normalized to agonist CP-55,940 response (100%) and basal level (0%)): –55% | β-arrestin recruitment (BRET signal) [3]: Baseline BRET signal was retained | pKd [4]: 9.38 | koff [5, 7]: 2.29 10^–2 min^–1 | kon [5, 7]: 88.7 10^6 M^–1 min^–1 | τ (receptor residence time) [5, 7]: 43.7 min | ΔΔG (Experimental) [5]: -0.9 kcal/mol | ΔΔG (Experimental) ([5]; listed as (R)–3): –0.90 kcal mol-1 | pKd ([5]; kinetic Kd, 37 °C, hCB2R-HEK293 membranes, mean N = 3): 9.59 | ΔG (Experimental) ([5]; ΔG exp = RT ln(Kd), T = 310 K, from experimental Kd values): –13.6 kcal mol-1 | EC50 [6]: 60.3 nM
